Measured values as given in patent US20110028566A1, “COMPOSITIONS AND PRODUCTS CONTAINING CYCLOALIPHATIC DIOL ANTIMICROBIAL AGENTS AND METHODS OF USING THE COMPOSITIONS AND PRODUCTS” (EASTMAN CHEMICAL COMPANY, priority 2009, published 2011).

Experiments:
Test in all cases: Microbial challenge testing in BPW
Format in all cases: cell-based
[1] = tested on: Aspergillus niger
Experimental: (§1) The microorganisms used in challenge tests are given in Table 3, designated as either ATCC (American Type Culture Collection) or wild type. These wild type organisms were problematic organisms previously isolated from chemical products. In the description for each organism, the bacteria are indicated as either GN (Gram negative) or GP (Gram positive).
(§2) All of the microorganisms were grown in Tryptose Soy Broth (TSB), DIFCO™ available from Becton, Dickinson and Company, containing 1% dextrose. Aspergillus niger and Candida albicans were incubated at 22° C.±2° C. for at least 96 hours. All bacteria were incubated at 35° C.±2° C. in a humidified incubator for at least 96 hours.
Aspergillus niger and Candida albicans were also grown on Sabouraud dextrose agar (SDA) at 22° C.±2° C. for 7 to 14 days or until full sporulation was achieved.
(§3) The following procedure was followed to determine the amount of each challenge material (inoculum broth) required to produce a 10^8 cfu/mL challenge, which is equivalent to a final test-sample microbial concentration of 10^5 to 10^6 cfu (colony-forming units)/mL.
(§4) Using a sterile serological pipette, 1 mL of the growth from each TSB culture was transferred into tubes containing 9 mL phosphate buffer (pH 7.2) and mixed thoroughly. This process was repeated to make serial 1:10 dilutions. Then 0.1 mL of each sample and dilution was inoculated onto agar plates to produce the equivalent of a further 1:10 dilution. C. albicans and A. niger were inoculated onto SDA and bacteria were inoculated onto Plate Count Agar (PCA), DIFCO™ available from Becton, Dickinson and Company. The 0.1 mL aliquots were evenly distributed on the plates using the spread-plate technique. The spread-plate technique is performed by spreading the aliquot over the entire plate surface using a sterile spreading rod while rotating the plate with a rotary auto-plater. After the inoculum was absorbed completely, each plate was inverted and incubated (fungi at 22° C.±2° C. and bacteria at 35° C.±2° C.).
(§5) After incubation for at least 48 hours, colonies that had developed on the agar plates were counted and recorded with the corresponding dilution. If counting had to be delayed temporarily, plates were refrigerated, preferably no more than 24 hours, until they could be counted. The number of cfu/mL was determined by multiplying the count by the dilution factor for that particular plate.
(§6) Turbidity in Nepholemetric Turbidity Units (NTU) was measured for each serial dilution using the HF-Micro 100 Model Turbidimeter. For each microorganism, the plate counts were compared to the turbidity readings.
Aspergillus niger cultures were harvested and spores dislodged from the SDA on which they were grown by rubbing the growth gently with a sterile inoculating loop. The spores were then mixed into the broth culture that had been incubated with a sterile magnetic stir bar to reduce pellicle formation. The spore-culture mixture was filtered repeatedly through sterile, non-absorbent cotton and harvested repeatedly, adjusting vegetative cells and spores to a level of 1.0×10^8. A hemocytometer was used to verify the final challenge concentration.
(§7) Control substrates (“broth alone”) were prepared for each microorganism separately in triplicate by adding 13.5 mL of BPW (pH 7.0) containing 1% (w/v) dextrose to each 20-mL glass tube; then adding 1.5 mL challenge material to produce a final concentration at time zero of 10^5 to 10^6 cfu/mL and a total volume of 15 mL.
Test sample substrates were prepared containing each test material (1,4-CHDM, etc) or combination of test materials at the concentrations shown in Tables 5 and 6.

[2] = tested on: Staphylococcus aureus
Experimental: as §1, §2, §3, §4, §5, §6, §7
(§8) Test sample substrates were prepared containing each test material (1,4-CHDM, etc) or combination of test materials at the concentrations shown in Tables 5 and 6. Sample substrates were prepared in triplicate, except those substrates containing PE or CG which were prepared in duplicate. Substrates were prepared by adding BPW containing 1% (w/v) dextrose to each 20-mL glass tube, then adding the test material in the amount appropriate to achieve the desired weight/volume percent (g/100 mL) and to obtain a total volume of BPW with dextrose and test material of 13.5 mL. Then 1.5 mL challenge material was added to produce a final concentration at time zero of 10^5 to 10^6 cfu/mL of the respective organism and a total test sample substrate volume of 15 mL.
(§9) After mixing, all challenged substrates were incubated at 35° C.±2° C. for 14 days and then at ambient room temperature.

[3] = tested on: Proteus vulgaris
Experimental: as §1, §2, §3, §4, §5, §6, §7, §8, §9

[4] = tested on: Bacillus subtilis
Experimental: as §1, §2, §3, §4, §5, §6, §7, §8, §9

[5] = tested on: Burkholderia cepacia
Experimental: as §1, §2, §3, §4, §5, §6, §7, §8, §9

[6] = tested on: Pseudomonas aeruginosa
Experimental: as §1, §2, §3, §4, §5, §6, §7, §8, §9

For OCC1CCCC(CO)C1 (stereo not shown) [1,3-CHDM], the “Grade code A. niger” value ([1]; 0.5%, 3 days incubation) was 5, the “Grade code A. niger” value ([1]; 0.5%, 13 days incubation) was 5 and the “Grade code A. niger” value ([1]; 0.5%, 30 days incubation) was 5. For the same compound, the “Grade code A. niger” value ([1]; 1.25%, 3 days incubation) was 5, the “Grade code A. niger” value ([1]; 1.25%, 13 days incubation) was 4 and the “Grade code A. niger” value ([1]; 1.25%, 30 days incubation) was 4. The “Grade code A. niger” value ([1]; 2.5%, 3 days incubation) was 4, the “Grade code A. niger” value ([1]; 2.5%, 13 days incubation) was 4 and the “Grade code A. niger” value ([1]; 2.5%, 30 days incubation) was 4. The “Grade code S. aureus” value ([2]; 0.5%, 3 days incubation) was 4 (1001 to 10,000 colonies (thus 10,000 cfu/mL to 100,000 cfu/mL)), the “Grade code S. aureus” value ([2]; 0.5%, 14 days incubation) was 4 (1001 to 10,000 colonies (thus 10,000 cfu/mL to 100,000 cfu/mL)) and the “Grade code S. aureus” value ([2]; 0.5%, 30 days incubation) was 4 (1001 to 10,000 colonies (thus 10,000 cfu/mL to 100,000 cfu/mL)). The “Grade code S. aureus” value ([2]; 1.25%, 3 days incubation) was 4 (1001 to 10,000 colonies (thus 10,000 cfu/mL to 100,000 cfu/mL)), the “Grade code S. aureus” value ([2]; 1.25%, 14 days incubation) was 4 (1001 to 10,000 colonies (thus 10,000 cfu/mL to 100,000 cfu/mL)) and the “Grade code S. aureus” value ([2]; 1.25%, 30 days incubation) was 4 (1001 to 10,000 colonies (thus 10,000 cfu/mL to 100,000 cfu/mL)). The “Grade code S. aureus” value ([2]; 2.5%, 3 days incubation) was 4 (1001 to 10,000 colonies (thus 10,000 cfu/mL to 100,000 cfu/mL)), the “Grade code S. aureus” value ([2]; 2.5%, 14 days incubation) was 4 (1001 to 10,000 colonies (thus 10,000 cfu/mL to 100,000 cfu/mL)) and the “Grade code S. aureus” value ([2]; 2.5%, 30 days incubation) was 4 (1001 to 10,000 colonies (thus 10,000 cfu/mL to 100,000 cfu/mL)). The “Grade code P. vulqaris” value ([3]; 0.5%, 3 days incubation) was 5 (More than 10,000 colonies estimated (thus >100,000 cfu/mL)), the “Grade code P. vulqaris” value ([3]; 0.5%, 13 days incubation) was 5 (More than 10,000 colonies estimated (thus >100,000 cfu/mL)) and the “Grade code P. vulqaris” value ([3]; 0.5%, 30 days incubation) was 5 (More than 10,000 colonies estimated (thus >100,000 cfu/mL)). For the same compound, the “Grade code P. vulqaris” value ([3]; 1.25%, 3 days incubation) was 5 (More than 10,000 colonies estimated (thus >100,000 cfu/mL)), the “Grade code P. vulqaris” value ([3]; 1.25%, 13 days incubation) was 4 (1001 to 10,000 colonies (thus 10,000 cfu/mL to 100,000 cfu/mL)) and the “Grade code P. vulqaris” value ([3]; 1.25%, 30 days incubation) was 4 (1001 to 10,000 colonies (thus 10,000 cfu/mL to 100,000 cfu/mL)). For the same compound, the “Grade code B. subtilis” value ([4]; 0.5%, 3 days incubation) was 4 (1001 to 10,000 colonies (thus 10,000 cfu/mL to 100,000 cfu/mL)), the “Grade code B. subtilis” value ([4]; 0.5%, 14 days incubation) was 4 (1001 to 10,000 colonies (thus 10,000 cfu/mL to 100,000 cfu/mL)) and the “Grade code B. subtilis” value ([4]; 0.5%, 30 days incubation) was 4 (1001 to 10,000 colonies (thus 10,000 cfu/mL to 100,000 cfu/mL)). For the same compound, the “Grade code B. subtilis” value ([4]; 1.25%, 3 days incubation) was 4 (1001 to 10,000 colonies (thus 10,000 cfu/mL to 100,000 cfu/mL)), the “Grade code B. subtilis” value ([4]; 1.25%, 14 days incubation) was 4 (1001 to 10,000 colonies (thus 10,000 cfu/mL to 100,000 cfu/mL)) and the “Grade code B. subtilis” value ([4]; 1.25%, 30 days incubation) was 4 (1001 to 10,000 colonies (thus 10,000 cfu/mL to 100,000 cfu/mL)). For the same compound, the “Grade code B. subtilis” value ([4]; 2.5%, 3 days incubation) was 4 (1001 to 10,000 colonies (thus 10,000 cfu/mL to 100,000 cfu/mL)), the “Grade code B. subtilis” value ([4]; 2.5%, 14 days incubation) was 4 (1001 to 10,000 colonies (thus 10,000 cfu/mL to 100,000 cfu/mL)) and the “Grade code B. subtilis” value ([4]; 2.5%, 30 days incubation) was 4 (1001 to 10,000 colonies (thus 10,000 cfu/mL to 100,000 cfu/mL)). For the same compound, the “Grade code B. cepacia” value ([5]; 0.5%, 3 days incubation) was 5 (More than 10,000 colonies estimated (thus >100,000 cfu/mL)), the “Grade code B. cepacia” value ([5]; 0.5%, 14 days incubation) was 5 (More than 10,000 colonies estimated (thus >100,000 cfu/mL)) and the “Grade code B. cepacia” value ([5]; 0.5%, 30 days incubation) was 5 (More than 10,000 colonies estimated (thus >100,000 cfu/mL)). For the same compound, the “Grade code B. cepacia” value ([5]; 1.25%, 3 days incubation) was 4.7, the “Grade code B. cepacia” value ([5]; 1.25%, 14 days incubation) was 4.7 and the “Grade code B. cepacia” value ([5]; 1.25%, 30 days incubation) was 4.7. The “Grade code B. cepacia” value ([5]; 2.5%, 3 days incubation) was 4 (1001 to 10,000 colonies (thus 10,000 cfu/mL to 100,000 cfu/mL)), the “Grade code B. cepacia” value ([5]; 2.5%, 14 days incubation) was 4 (1001 to 10,000 colonies (thus 10,000 cfu/mL to 100,000 cfu/mL)) and the “Grade code B. cepacia” value ([5]; 2.5%, 30 days incubation) was 4 (1001 to 10,000 colonies (thus 10,000 cfu/mL to 100,000 cfu/mL)). For the same compound, the “Grade code P. aeruginosa” value ([6]; 0.5%, 3 days incubation) was 5 (More than 10,000 colonies estimated (thus >100,000 cfu/mL)), the “Grade code P. aeruginosa” value ([6]; 0.5%, 13 days incubation) was 5 (More than 10,000 colonies estimated (thus >100,000 cfu/mL)) and the “Grade code P. aeruginosa” value ([6]; 0.5%, 30 days incubation) was 5 (More than 10,000 colonies estimated (thus >100,000 cfu/mL)). For the same compound, the “Grade code P. aeruginosa” value ([6]; 1.25%, 3 days incubation) was 4 (1001 to 10,000 colonies (thus 10,000 cfu/mL to 100,000 cfu/mL)).
